According to ChEMBL document CHEMBL4138174, “Design and synthesis of novel C14-urea-tetrandrine derivatives with potent anti-cancer activity” (Eur J Med Chem, 2018):

Assays:
Format in all cases: functional, cell-based
[1] = test system: HEL; experiment: Cytotoxicity against human HEL cells assessed as reduction in cell viability after 48 hrs by MTT assay
[2] = Cytotoxicity against human WM9 cells assessed as reduction in cell viability after 48 hrs by MTT assay
[3] = test system: PC-3; experiment: Cytotoxicity against human PC3 cells assessed as reduction in cell viability after 48 hrs by MTT assay
[4] = test system: K562; experiment: Cytotoxicity against human K562 cells assessed as reduction in cell viability after 48 hrs by MTT assay
[5] = test system: MDA-MB-231; experiment: Cytotoxicity against human MDA-MB-231 cells assessed as reduction in cell viability after 48 hrs by MTT assay

Row | SMILES | IC50 ([1]; Homo sapiens, HEL, 48 h) | IC50 ([2]; Homo sapiens, WM9, 48 h) | IC50 ([3]; pc-3) | IC50 ([4]; Homo sapiens, K562, 48 h) | IC50 ([5]; Homo sapiens, MDA-MB-231, 48 h) | IC50 ([3]; Homo sapiens, PC-3, 48 h) | IC50 ([4]; k562) | IC50 ([1]; hel) | IC50 [2] | IC50 ([5]; mda-mb-231)
1 | CCCCNC(=S)Nc1cc(OC)c2cc1C[C@H]1c3c(cc(OC)c(OC)c3Oc3cc4c(cc3OC)CCN(C)[C@H]4Cc3ccc(cc3)O2)CCN1C [listing 1 of 2 here] | 3.68 µM | 4.27 µM | 3.03 µM | 2.39 µM | 5.66 µM | – | – | – | – | –
2 | COc1cc(NC(=O)Nc2ccc(C)cc2)c2cc1Oc1ccc(cc1)C[C@H]1c3cc(c(OC)cc3CCN1C)Oc1c(OC)c(OC)cc3c1[C@H](C2)N(C)CC3 | 8.08 µM | 5.13 µM | – | 2.89 µM | 7.28 µM | 3.85 µM | – | – | – | –
3 | CCCNC(=O)Nc1cc(OC)c2cc1C[C@H]1c3c(cc(OC)c(OC)c3Oc3cc4c(cc3OC)CCN(C)[C@H]4Cc3ccc(cc3)O2)CCN1C | 4.79 µM | 4.83 µM | – | 5.09 µM | 6.31 µM | 0.73 µM | – | – | – | –
4 | COc1cc(NC(=S)Nc2ccc(C)cc2)c2cc1Oc1ccc(cc1)C[C@H]1c3cc(c(OC)cc3CCN1C)Oc1c(OC)c(OC)cc3c1[C@H](C2)N(C)CC3 | 6.04 µM | 5.52 µM | – | 2.23 µM | 3.61 µM | 5.36 µM | – | – | – | –
5 | COc1cc(NC(=O)N2CCN(S(C)(=O)=O)C2=O)c2cc1Oc1ccc(cc1)C[C@H]1c3cc(c(OC)cc3CCN1C)Oc1c(OC)c(OC)cc3c1[C@H](C2)N(C)CC3 | 5.51 µM | 3.76 µM | – | 3.06 µM | 4.33 µM | 2.17 µM | – | – | – | –
6 | COc1cc(NC(=O)NCCc2ccccc2)c2cc1Oc1ccc(cc1)C[C@H]1c3cc(c(OC)cc3CCN1C)Oc1c(OC)c(OC)cc3c1[C@H](C2)N(C)CC3 | 8.93 µM | 7.68 µM | – | 4.94 µM | 9.76 µM | 5.9 µM | – | – | – | –
7 | COc1ccc(NC(=O)Nc2cc(OC)c3cc2C[C@H]2c4c(cc(OC)c(OC)c4Oc4cc5c(cc4OC)CCN(C)[C@H]5Cc4ccc(cc4)O3)CCN2C)cc1 | 6.65 µM | 5.01 µM | – | 3.22 µM | 10.2 µM | 4.67 µM | – | – | – | –
8 | COc1cc(NC(=O)NC2CCCC2)c2cc1Oc1ccc(cc1)C[C@H]1c3cc(c(OC)cc3CCN1C)Oc1c(OC)c(OC)cc3c1[C@H](C2)N(C)CC3 | 11.6 µM | 6.45 µM | – | 6.42 µM | 13.2 µM | 1.76 µM | – | – | – | –
9 | COc1cc(NC(=O)Nc2ccc(OC(F)(F)F)cc2)c2cc1Oc1ccc(cc1)C[C@H]1c3cc(c(OC)cc3CCN1C)Oc1c(OC)c(OC)cc3c1[C@H](C2)N(C)CC3 | 4.02 µM | 3.91 µM | – | 1.25 µM | 4.95 µM | 0.74 µM | – | – | – | –
10 | O=c1[nH]cc(F)c(=O)[nH]1 [FLUOROURACIL] | 16 µM | 15.8 µM | – | 9.49 µM | 17.7 µM | 19.9 µM | – | – | – | –
11 | CCCCNC(=O)Nc1cc(OC)c2cc1C[C@H]1c3c(cc(OC)c(OC)c3Oc3cc4c(cc3OC)CCN(C)[C@H]4Cc3ccc(cc3)O2)CCN1C [listing 1 of 2 here] | 4.53 µM | 5.12 µM | – | – | 5.4 µM | 0.88 µM | 6.88 µM | – | – | –
12 | COc1cc(NC(=O)NCc2ccccc2)c2cc1Oc1ccc(cc1)C[C@H]1c3cc(c(OC)cc3CCN1C)Oc1c(OC)c(OC)cc3c1[C@H](C2)N(C)CC3 | 8.02 µM | 6.14 µM | – | 4.59 µM | 6.99 µM | 5.73 µM | – | – | – | –
13 | COc1cc(NC(=O)Nc2ccc(Cl)c(C(F)(F)F)c2)c2cc1Oc1ccc(cc1)C[C@H]1c3cc(c(OC)cc3CCN1C)Oc1c(OC)c(OC)cc3c1[C@H](C2)N(C)CC3 | 5.41 µM | 3.1 µM | – | 2.05 µM | 10.1 µM | 4.7 µM | – | – | – | –
14 | C=C(C)C(=O)OCCNC(=O)Nc1cc(OC)c2cc1C[C@H]1c3c(cc(OC)c(OC)c3Oc3cc4c(cc3OC)CCN(C)[C@H]4Cc3ccc(cc3)O2)CCN1C | 12.3 µM | 1.83 µM | – | 8.01 µM | 15.8 µM | 7.82 µM | – | – | – | –
15 | COc1cc(NC(=O)NC(C)(C)C)c2cc1Oc1ccc(cc1)C[C@H]1c3cc(c(OC)cc3CCN1C)Oc1c(OC)c(OC)cc3c1[C@H](C2)N(C)CC3 | 11.9 µM | 5.37 µM | – | 4.89 µM | 12.6 µM | 2.97 µM | – | – | – | –
16 | COc1ccc(NC(=S)Nc2cc(OC)c3cc2C[C@H]2c4c(cc(OC)c(OC)c4Oc4cc5c(cc4OC)CCN(C)[C@H]5Cc4ccc(cc4)O3)CCN2C)cc1 | 7.38 µM | 5.4 µM | – | 2.69 µM | 7.4 µM | 5.27 µM | – | – | – | –
17 | COc1cc(NC(=O)Nc2cccc3ccccc23)c2cc1Oc1ccc(cc1)C[C@H]1c3cc(c(OC)cc3CCN1C)Oc1c(OC)c(OC)cc3c1[C@H](C2)N(C)CC3 | 5.21 µM | 3.93 µM | – | 1.97 µM | 4.61 µM | 1.31 µM | – | – | – | –
18 | CCNC(=O)Nc1cc(OC)c2cc1C[C@H]1c3c(cc(OC)c(OC)c3Oc3cc4c(cc3OC)CCN(C)[C@H]4Cc3ccc(cc3)O2)CCN1C | 4.02 µM | 2.31 µM | – | 3.2 µM | 5.83 µM | 0.98 µM | – | – | – | –

Row | SMILES | IC50 ([1]; Homo sapiens, HEL, 48 h) | IC50 ([2]; Homo sapiens, WM9, 48 h) | IC50 ([3]; pc-3) | IC50 ([4]; Homo sapiens, K562, 48 h) | IC50 ([5]; Homo sapiens, MDA-MB-231, 48 h) | IC50 ([3]; Homo sapiens, PC-3, 48 h) | IC50 ([4]; k562) | IC50 ([1]; hel) | IC50 [2] | IC50 ([5]; mda-mb-231)
19 | COc1cc(NC(=O)N2c3ccccc3Sc3ccccc32)c2cc1Oc1ccc(cc1)C[C@H]1c3cc(c(OC)cc3CCN1C)Oc1c(OC)c(OC)cc3c1[C@H](C2)N(C)CC3 | 3.32 µM | 3.21 µM | – | 2.49 µM | 4.14 µM | 2.95 µM | – | – | – | –
20 | CNC(=S)Nc1cc(OC)c2cc1C[C@H]1c3c(cc(OC)c(OC)c3Oc3cc4c(cc3OC)CCN(C)[C@H]4Cc3ccc(cc3)O2)CCN1C | 9.19 µM | 7.37 µM | – | 7.35 µM | 13.6 µM | 6.43 µM | – | – | – | –
21 | COc1cc(NC(=O)Nc2ccc(C(F)(F)F)cc2)c2cc1Oc1ccc(cc1)C[C@H]1c3cc(c(OC)cc3CCN1C)Oc1c(OC)c(OC)cc3c1[C@H](C2)N(C)CC3 | 4.74 µM | 4.15 µM | – | 1.74 µM | 5.35 µM | 5.2 µM | – | – | – | –
22 | COc1cc(NC(=S)Nc2ccc(F)cc2)c2cc1Oc1ccc(cc1)C[C@H]1c3cc(c(OC)cc3CCN1C)Oc1c(OC)c(OC)cc3c1[C@H](C2)N(C)CC3 | – | – | 0.33 µM | – | – | – | 0.88 µM | 1.38 µM | 1.63 µM | 1.56 µM
23 | COc1cc(NC(=O)Nc2cccc(Cl)c2)c2cc1Oc1ccc(cc1)C[C@H]1c3cc(c(OC)cc3CCN1C)Oc1c(OC)c(OC)cc3c1[C@H](C2)N(C)CC3 | 6.47 µM | 3.16 µM | – | 2.02 µM | 9.06 µM | 4.54 µM | – | – | – | –
24 | COc1cc(NC(=S)NC(C)C)c2cc1Oc1ccc(cc1)C[C@H]1c3cc(c(OC)cc3CCN1C)Oc1c(OC)c(OC)cc3c1[C@H](C2)N(C)CC3 | 4.22 µM | 3.63 µM | – | 3.19 µM | 5.57 µM | 2.1 µM | – | – | – | –
25 | CCCCNC(=O)Nc1cc(OC)c2cc1C[C@H]1c3c(cc(OC)c(OC)c3Oc3cc4c(cc3OC)CCN(C)[C@H]4Cc3ccc(cc3)O2)CCN1C [listing 2 of 2 here] | – | – | 0.68 µM | – | – | – | 2.77 µM | 2.67 µM | 3.66 µM | 5.28 µM
26 | COc1cc(NC(=O)N2CCOCC2)c2cc1Oc1ccc(cc1)C[C@H]1c3cc(c(OC)cc3CCN1C)Oc1c(OC)c(OC)cc3c1[C@H](C2)N(C)CC3 | 4.67 µM | 5.54 µM | – | 4.33 µM | 7.29 µM | 3.78 µM | – | – | – | –
27 | COc1ccc2cc1Oc1ccc(cc1)C[C@H]1c3cc(c(OC)cc3CCN1C)Oc1c(OC)c(OC)cc3c1[C@H](C2)N(C)CC3 [FANCHININ] | 16.8 µM | 11 µM | – | 13.8 µM | 22 µM | 7.87 µM | – | – | – | –
28 | COc1cc(NC(=S)Nc2ccc(Cl)cc2)c2cc1Oc1ccc(cc1)C[C@H]1c3cc(c(OC)cc3CCN1C)Oc1c(OC)c(OC)cc3c1[C@H](C2)N(C)CC3 | 7.18 µM | 6.93 µM | – | 2.43 µM | 4.35 µM | 6.08 µM | – | – | – | –
29 | COc1cc(NC(=O)NC2CCCCC2)c2cc1Oc1ccc(cc1)C[C@H]1c3cc(c(OC)cc3CCN1C)Oc1c(OC)c(OC)cc3c1[C@H](C2)N(C)CC3 | 14.8 µM | 10.4 µM | – | 5.56 µM | 16.6 µM | 3.78 µM | – | – | – | –
30 | CCCCNC(=S)Nc1cc(OC)c2cc1C[C@H]1c3c(cc(OC)c(OC)c3Oc3cc4c(cc3OC)CCN(C)[C@H]4Cc3ccc(cc3)O2)CCN1C [listing 2 of 2 here] | – | – | 1.05 µM | – | – | – | 2.02 µM | 1.96 µM | 2.84 µM | 3.24 µM
31 | CNC(=O)Nc1cc(OC)c2cc1C[C@H]1c3c(cc(OC)c(OC)c3Oc3cc4c(cc3OC)CCN(C)[C@H]4Cc3ccc(cc3)O2)CCN1C | 9.42 µM | 3.09 µM | – | 9.21 µM | 14.5 µM | 1.71 µM | – | – | – | –
32 | COc1cc(NC(=O)Nc2cccc(C)c2)c2cc1Oc1ccc(cc1)C[C@H]1c3cc(c(OC)cc3CCN1C)Oc1c(OC)c(OC)cc3c1[C@H](C2)N(C)CC3 | 4.86 µM | 5.07 µM | – | 2.15 µM | 10.4 µM | 3.15 µM | – | – | – | –
33 | COc1cc(NC(=O)Nc2ccc([N+](=O)[O-])cc2)c2cc1Oc1ccc(cc1)C[C@H]1c3cc(c(OC)cc3CCN1C)Oc1c(OC)c(OC)cc3c1[C@H](C2)N(C)CC3 | 6.54 µM | 4.65 µM | – | 1.84 µM | 5.12 µM | 6.85 µM | – | – | – | –
34 | COc1cc(NC(=O)Nc2ccc(F)cc2)c2cc1Oc1ccc(cc1)C[C@H]1c3cc(c(OC)cc3CCN1C)Oc1c(OC)c(OC)cc3c1[C@H](C2)N(C)CC3 | – | – | 0.77 µM | – | – | – | 0.93 µM | 2.58 µM | 3.49 µM | 3.06 µM
35 | COc1ccc2cc1Oc1ccc(cc1)C[C@H]1c3cc(c(OC)cc3CCN1C)Oc1c(OC)c(OC)cc3c1[C@H](C2)N(C)CC3 | – | – | 4.45 µM | – | – | – | 8.87 µM | 10.1 µM | 7.39 µM | 13.6 µM
